Where “and” joins values, the source holds several entries; their conditions need not be identical. Equal entries are not always repeated.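 Grown in 96-well plates, cells were treated for 48 hours with each compound at five concentrations. Insufficient inhibition: endpoint recorded as highest concentration tested. GI50: concentration for 50% inhibition of growth. At the TGI there is no net growth.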
Tests used:
Experiment in all cases: NCI-60 cell line screen, 48 h
SNB-78 CNS = test system: SNB-78 CNS
LXFL 529 NSCLC = test system: LXFL 529 NSCLC
DLD-1 colon = test system: DLD-1 colon
DMS 273 small cell lung = test system: DMS 273 small cell lung
KM20L2 colon = test system: KM20L2 colon
M19-MEL melanoma = test system: M19-MEL melanoma
HOP-18 NSCLC = test system: HOP-18 NSCLC
MDA-N = test system: MDA-N
SN12K1 renal = test system: SN12K1 renal
RXF-631 renal = test system: RXF-631 renal

| Compound | TGI (SNB-78 CNS) [µM] | TGI (LXFL 529 NSCLC) [µM] | TGI (DLD-1 colon) | TGI (DMS 273 small cell lung) | TGI (KM20L2 colon) | TGI (M19-MEL melanoma) | TGI (HOP-18 NSCLC) [µM] | other results |
| --- | --- | --- | --- | --- | --- | --- | --- | --- |
| C=CCC12CCC(=O)[C@@]1(C)CC=C(O)C2=O (stereo not given in full) | > 100 | > 100 | > 100 µM | > 100 µM | > 100 µM | > 100 µM | > 100 | – |
| O=C1C=CC(=O)N1c1ccc(I)cc1 | – | – | – | – | – | – | – | TGI (MDA-N): 30.1 µM |
| O=C(O)CCC1CCc2cccc(OCC(=O)O)c2C1=O (stereo not given) | > 100 | > 100 | > 100 µM | > 100 µM | > 100 µM | > 100 µM | > 100 | – |
| O=C(O)CNCCc1ccccc1 | – | – | – | – | – | – | – | TGI (MDA-N): > 100 µM |
| CCOC(=O)Nc1ccc2c(c1)N(C(=O)CCN(CC)CC)c1ccccc1S2 | – | 42.5 | > 87.6 µM and 105 µM | > 68.8 µM and 77.9 µM | 38.7 µM and 39.7 µM | > 71.1 µM and 124 µM | – | GI50 (SNB-78 CNS): 41 µM; TGI (SN12K1 renal): 95.3 µM; GI50 (DLD-1 colon): 32.9 µM; GI50 (KM20L2 colon): 13.9 µM; GI50 (M19-MEL melanoma): 56.2 µM |
| O=C(Cc1ccccc1)N/N=C(/c1nc2ccc([N+](=O)[O-])cc2[nH]c1=O)C(O)c1ccccc1Cl (stereo not given) | > 100 | > 100 | > 100 µM | – | – | > 100 µM | > 100 | – |
| CC1(C)OC2C(CO)OC(n3ccc(N)nc3=O)C2O1 (stereo not given) | – | – | – | – | – | – | – | TGI (MDA-N): > 100 µM |
| Cc1cc2c(cc1C)[n+](=O)c(C(=O)CC(=O)C(=O)Nc1ccccc1C(C)C)c(C)n2[O-] | > 100 | > 100 | – | > 100 µM | > 100 µM | > 100 µM | – | TGI (RXF-631 renal): > 100 µM |
| NC1=NC2=C(CCCC2)C(c2cccs2)S1 (stereo not given) | > 100 | > 100 | – | > 100 µM | > 100 µM | > 100 µM | > 100 | – |
| C=C1C(=O)OC2CC1C(OC(C)=O)C/C(C)=C/CC/C(C)=C\CCC2(C)O (stereo not given) | – | – | – | – | – | – | – | TGI (MDA-N): 15.9 µM and 12.3 µM |
| CN(C)c1ccc(/C=c2\sc3nnc(-c4cccnc4)n3c2=O)cc1 | > 100 | > 100 | > 100 µM | > 100 µM | > 100 µM | > 100 µM | > 100 | – |
| OCCCc1cnco1 | > 100 | > 100 | > 100 µM | > 100 µM | > 100 µM | > 100 µM | > 100 | – |
| Cc1cc(=O)oc2cc(OC(=O)Nc3ccccc3)ccc12 | – | – | – | – | – | – | – | TGI (MDA-N): > 100 µM |
| Cn1c(=O)c2[nH]c(CCCc3ccc([N+](=O)[O-])cc3)nc2n(C)c1=O | – | – | – | – | – | – | – | TGI (MDA-N): > 100 µM |
| Cn1c2cc([N+](=O)[O-])ccc2c(=O)c2c(O)cc3c(c21)C=CC(C)(C)O3 | > 100 | > 100 | > 100 µM | > 100 µM | > 100 µM | – | – | – |
| CC(=O)CC(=O)NC=O | > 100 | > 100 | > 100 µM | > 100 µM | > 100 µM | > 100 µM | > 100 | TGI (RXF-631 renal): > 100 µM |
| O=C(N/C=C/C=C/Sc1ccccc1)OCc1ccccc1 | > 100 | 32.5 | 29 µM | 31.4 µM | 31 µM | 31.5 µM | 65 | TGI (RXF-631 renal): 39.3 µM |
| CS(=N)(=O)CCC(N)P(=O)(O)O (stereo not given) | – | – | – | – | – | – | – | TGI (MDA-N): > 100 µM |
| C=C1C(=O)c2cc3c(cc2C(c2cc(OC)c(OC)c(OC)c2)[C@@H]1C(=O)O)OCO3 (stereo not given in full) | > 100 | > 100 | > 100 µM | – | – | > 100 µM | > 100 | – |
| COC1=CC(=O)OC(/C=C(C)/C=C/C2=C(C)CCCC2(C)C)C1 (stereo not given) | > 100 | > 100 | > 100 µM | > 100 µM | > 100 µM | > 100 µM | – | – |

| Compound | TGI (SNB-78 CNS) [µM] | TGI (LXFL 529 NSCLC) [µM] | TGI (DLD-1 colon) | TGI (DMS 273 small cell lung) | TGI (KM20L2 colon) | TGI (M19-MEL melanoma) | TGI (HOP-18 NSCLC) [µM] | other results |
| --- | --- | --- | --- | --- | --- | --- | --- | --- |
| COC(=O)c1nc(C(=O)OC)c2c([nH]c3ccccc32)c1C(=O)OC | > 100 | > 100 | > 100 µM | > 100 µM | – | – | – | – |
| Fc1ccc(C2SCc3nc4ccccc4n32)cc1F (stereo not given) | > 100 | > 100 | > 100 µM | 97.9 µM | > 100 µM | > 100 µM | > 100 | TGI (RXF-631 renal): > 100 µM |
| N#Cc1ccc(C(C2C(=O)NC(=O)NC2=O)C2C(=O)NC(=O)NC2=O)cc1 | – | > 100 | – | > 100 µM | > 100 µM | > 100 µM | – | – |
| CCCCN(CCCC)CC(C(=O)Nc1ccc([N+](=O)[O-])cc1[N+](=O)[O-])/C(C)=N\NC(=O)C[N+](C)(C)C (stereo not given) | > 100 | > 100 | > 100 µM | 31.2 µM | > 100 µM | > 100 µM | > 100 | TGI (RXF-631 renal): > 100 µM |
| CCc1cccc(CC)c1NC(=O)CC1SC(N)=NC1=O (stereo not given) | > 100 | > 100 | – | > 100 µM | – | > 100 µM | > 100 | TGI (RXF-631 renal): > 100 µM |
| C=C1c2[nH]c3ccccc3c2CC(C(=O)O)N1C(O)c1ccc(S(=O)(=O)O)cc1 (stereo not given) | > 100 | > 100 | > 100 µM | > 100 µM | – | > 100 µM | – | TGI (RXF-631 renal): > 100 µM |
| O=C1C(=C([O-])c2ccccc2)C(=O)c2ccccc21.O=C1C(=C([O-])c2ccccc2)C(=O)c2ccccc21.[Co+2] | – | – | > 100 µM | – | > 100 µM | > 100 µM | > 100 | GI50 (DLD-1 colon): > 100 µM; GI50 (KM20L2 colon): > 100 µM; GI50 (M19-MEL melanoma): > 100 µM; GI50 (HOP-18 NSCLC): 54.4 µM |
| CC(=O)Oc1c(Br)ccc2cc(C(Br)Br)c(C(=O)c3ccccc3)nc12 | 71.4 | 52.3 | 51.5 µM | 42.3 µM | 42.2 µM | 44.1 µM | 31.2 | TGI (RXF-631 renal): 47.6 µM |
| O=C1NC(=O)C2C1C1C=C3c4ccccc4N(c4ccccc4)C32[C@H]2C(=O)NC(=O)[C@@H]12 (stereo not given in full) | > 100 | > 100 | > 100 µM | > 100 µM | > 100 µM | > 100 µM | > 100 | – |
| CC(=O)OCC1OC([Se-])C(OC(C)=O)C(OC(C)=O)C1OC(C)=O.N#CCC[PH+](CCC#N)CCC#N.[Au+] (stereo not given) | 79.3 | 37.3 | > 63.6 µM | 49.7 µM | 41.1 µM | > 27.9 µM | 46.9 | GI50 (SNB-78 CNS): 20.1 µM; GI50 (LXFL 529 NSCLC): 3.5 µM; GI50 (RXF-631 renal): 16 µM; TGI (RXF-631 renal): > 100 µM; GI50 (DLD-1 colon): 7.78 µM; GI50 (DMS 273 small cell lung): 4.09 µM; GI50 (KM20L2 colon): 7 µM; GI50 (M19-MEL melanoma): 3.11 µM; GI50 (HOP-18 NSCLC): 12.6 µM |
| O=C([O-])CCc1ccccc1.O=C([O-])CCc1ccccc1.O=C([O-])CCc1ccccc1.O=C([O-])CCc1ccccc1.[Mo+2].[Mo+2] | – | > 100 | > 100 µM | – | > 100 µM | > 100 µM | > 100 | GI50 (LXFL 529 NSCLC): > 100 µM; GI50 (DLD-1 colon): > 100 µM; GI50 (KM20L2 colon): > 100 µM; GI50 (M19-MEL melanoma): > 100 µM; GI50 (HOP-18 NSCLC): > 100 µM |
| O=C(O)c1ccc(C(=O)O)c(C(=O)O)c1.[NH-]C1CCCCC1[NH-].[Pt+2] | 99.9 | > 100 | > 87.4 µM | 9.31 µM | 27.7 µM | 46 µM | 84.6 | GI50 (SNB-78 CNS): 24.6 µM; GI50 (MDA-N): 1.15 µM; TGI (MDA-N): 24.7 µM; GI50 (SN12K1 renal): 2.71 µM; TGI (SN12K1 renal): 19 µM; GI50 (LXFL 529 NSCLC): 5.94 µM; GI50 (DLD-1 colon): 5.25 µM; GI50 (DMS 273 small cell lung): 0.417 µM; GI50 (KM20L2 colon): 0.768 µM; GI50 (M19-MEL melanoma): 1.41 µM; GI50 (HOP-18 NSCLC): 11.8 µM |
| NC(=S)N/N=C(\CCC(=O)Nc1ccccc1[N+](=O)[O-])CC(=O)c1ccco1 | > 100 | > 100 | > 100 µM | > 100 µM | > 100 µM | > 100 µM | > 100 | TGI (RXF-631 renal): > 100 µM |
| NS(=O)(=O)c1ccc(N=C2C(=O)Nc3ccccc32)cc1 | – | – | – | – | – | – | – | TGI (MDA-N): > 100 µM |
| O=c1c(O)cc2c(O)oc3c(=O)c(O)c(O)c4c(O)oc1c2c43 | > 100 | > 100 | > 100 µM | > 100 µM | > 100 µM | 25 µM | > 100 | – |
| O=c1nc(N2CCCC2)nc(N2CCCC2)s1 | > 100 | > 100 | > 100 µM | > 100 µM | > 100 µM | > 100 µM | > 100 | TGI (RXF-631 renal): > 100 µM |
| N#Cc1c(-c2ccccc2)cc(-c2cccs2)c(C#N)c1N | > 100 | > 100 | > 100 µM | > 100 µM | > 100 µM | – | 0.0879 | – |
| CC(=O)N(CCN1C(=O)c2ccccc2C1=O)CCN1C(=O)c2ccccc2C1=O | > 100 | > 100 | > 100 µM | > 100 µM | > 100 µM | > 100 µM | – | – |
| CCC1c2cc3n(c(=O)c2COC1O)Cc1c-3nc2ccccc2c1Cl (stereo not given) | > 100 | > 100 | > 100 µM | > 100 µM | > 100 µM | > 100 µM | > 100 | – |

— PubChem BioAssay (NCI)
